Experimental findings from ChEMBL document CHEMBL1201862, “PubChem BioAssay data set” (2004) are described below.

Among the test systems are 786-0; MDA-N; UACC-257; LOX IMVI; HT-29; HCT-116; BT-549; HCC 2998; U-251; HCT-15; CAKI-1; CCRF-CEM; UACC-62; SK-MEL-5; SF-295; SNB-75; NCI-H460; SNB-19; SF-539; DU-145.
Experiment in all cases: inhibition of tumour cell growth, NCI panel, 48 h

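Each compound was tested at five concentrations against cells in 96-well plates for 48 hours. GI50 marks 50% less growth.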 Activity calls are given as the source filed them. No stated cut-off is given here; in the data, active = GI50 up to about 1.1 µM and inactive = higher. A value given as a limit tells only on which side of the number the result lay.

With `CC(C)(C)COS(=O)OCC(C)(C)C`, the GI50 in the assay on 786-0, in the assay on MDA-N, with UACC-257, in the assay with LOX IMVI, with HT-29 and in the assay on HCT-116 was > 100 µM (inactive) in each case. Also, the GI50 is > 100 µM (inactive) with BT-549; > 100 µM (inactive) with HCC 2998; > 100 µM (inactive) in the assay on U-251; more than 100 µM in the assay with HCT-15; > 100 µM (inactive) in the assay with CAKI-1; > 100 µM (inactive) in the assay on CCRF-CEM. For the same molecule, the GI50 in the assay with UACC-62, in the assay with SK-MEL-5, with SF-295, in the assay on SNB-75, in the assay with NCI-H460 and in the assay on SNB-19 was > 100 µM (inactive) in each case. Besides, the GI50 in the assay with SF-539 and in the assay on DU-145 was > 100 µM (inactive) each time.
Consider `CC(=O)NC(CS)C(=O)O` (stereo not given), for which the GI50 in the assay on 786-0 is 21600 µM (inactive); with MDA-N it was > 100 µM (inactive); in the assay with UACC-257 it was 21400 µM (inactive); with LOX IMVI, > 100 µM (inactive); with HT-29 it was 14700 µM (inactive); in the assay with HCT-116, 17600 µM (inactive). Further, the GI50 with BT-549 is > 100 µM (inactive); in the assay on HCC 2998 it was 20700 µM (inactive); in the assay on U-251, 19300 µM (inactive); in the assay with HCT-15 it was 12900 µM; in the assay with CAKI-1, 6030 µM (inactive); in the assay on CCRF-CEM, > 100 µM (inactive). For the same molecule, the GI50 was 27300 µM (inactive) with UACC-62; 14500 µM (inactive) in the assay on SK-MEL-5; 14600 µM (inactive) with SF-295; 10700 µM (inactive) with SNB-75; 18400 µM (inactive) with NCI-H460; 16400 µM (inactive) in the assay on SNB-19. In addition, the GI50 in the assay with SF-539 is 26100 µM (inactive); with DU-145 it was 21400 µM (inactive).
Regarding `O=C(NC(=O)c1c(F)cccc1F)Nc1cccc(Oc2ncc(Cl)cn2)c1`, the GI50 in the assay on 786-0 is 40 µM (inactive); in the assay on MDA-N it was 1.56 µM (inactive); in the assay on UACC-257, > 100 µM (inactive); in the assay with LOX IMVI, 29.3 µM (inactive); in the assay on HT-29 it was 4.59 µM (inactive); with HCT-116, 8.79 µM (inactive). The GI50 is > 24.8 µM (inactive) in the assay on BT-549; 4.73 µM (inactive) in the assay on HCC 2998; 33.2 µM (inactive) in the assay with U-251; 3.27 µM in the assay on HCT-15; 30 µM (inactive) with CAKI-1; 47.1 µM (inactive) in the assay with CCRF-CEM. The GI50 with UACC-62 was 36.6 µM (inactive); in the assay on SK-MEL-5 it was > 100 µM (inactive); in the assay with SF-295, 32.3 µM (inactive); in the assay with SNB-75 it was 19.5 µM (inactive); with NCI-H460, 4.51 µM (inactive); in the assay with SNB-19, 45.5 µM (inactive). Moreover, the GI50 with SF-539 is 23.3 µM (inactive); in the assay on DU-145, > 100 µM (inactive).
In the case of `Nc1ccc(Sc2c3ccccc3nc3ccccc23)cc1`, the GI50 in the assay with 786-0 is 5.48 µM (inactive); in the assay on MDA-N it was 12.2 µM (inactive); in the assay on UACC-257 it was 16.6 µM (inactive); in the assay on LOX IMVI, 5.62 µM (inactive); in the assay with HT-29 it was 15.8 µM (inactive); with HCT-116, 10.8 µM (inactive). The GI50 is 14.3 µM (inactive) in the assay with BT-549; 24.4 µM (inactive) in the assay with HCC 2998; 15.2 µM (inactive) in the assay with U-251; 17.2 µM with HCT-15; 18.5 µM (inactive) in the assay on CAKI-1; 3.28 µM (inactive) with CCRF-CEM. Further, the GI50 was 15.2 µM (inactive) with UACC-62; 16.6 µM (inactive) in the assay on SK-MEL-5; 19.1 µM (inactive) with SF-295; 17.1 µM (inactive) in the assay on SNB-75; 20.4 µM (inactive) in the assay on NCI-H460; 22.1 µM (inactive) in the assay with SNB-19. The GI50 was 15.6 µM (inactive) in the assay with SF-539 and 13.7 µM (inactive) in the assay on DU-145.
`S=C(Nc1cccc(C2(N3CCCCC3)CCCCC2)c1)Nc1cccc(C2(N3CCCCC3)CCCCC2)c1`: the GI50 in the assay with 786-0 was 15.2 µM (inactive); with MDA-N, 17.6 µM (inactive); with UACC-257, 18 µM (inactive); in the assay with LOX IMVI, 12.7 µM (inactive); with HT-29, 19.4 µM (inactive); with HCT-116, 20.8 µM (inactive). Also, the GI50 was 41.1 µM (inactive) in the assay on BT-549; 2.43 µM (inactive) in the assay on HCC 2998; 23.4 µM (inactive) with U-251; 32.2 µM in the assay with HCT-15; 42 µM (inactive) with CAKI-1; 13.6 µM (inactive) in the assay with CCRF-CEM. Besides, the GI50 was 18.9 µM (inactive) in the assay on UACC-62; 17.7 µM (inactive) in the assay on SK-MEL-5; 37.8 µM (inactive) in the assay with SF-295; 12.9 µM (inactive) with SNB-75; 18.7 µM (inactive) in the assay with NCI-H460; 36.6 µM (inactive) with SNB-19. The GI50 in the assay with SF-539 was 15.3 µM (inactive); with DU-145 it was 27.3 µM (inactive).
`O=C(O)/C(Cl)=C(/Cl)C(=O)Nc1cccc(Cl)c1`: the GI50 in the assay on 786-0 was 16.9 µM (inactive); in the assay on MDA-N, 17.3 µM (inactive); with UACC-257 it was 18 µM (inactive); in the assay on LOX IMVI it was 13.8 µM (inactive); with HT-29, 20 µM (inactive); in the assay on HCT-116, 16.2 µM (inactive). The GI50 with BT-549 is 19.4 µM (inactive); with HCC 2998, 17.5 µM (inactive); with U-251, 28 µM (inactive); with HCT-15, 16.6 µM; in the assay on CAKI-1, 7.33 µM (inactive); in the assay with CCRF-CEM it was 5.87 µM (inactive). Besides, the GI50 was 16.8 µM (inactive) with UACC-62; 19 µM (inactive) with SK-MEL-5; 30.5 µM (inactive) in the assay on SF-295; 17.9 µM (inactive) in the assay with SNB-75; > 87.9 µM (inactive) in the assay with NCI-H460; 31.7 µM (inactive) in the assay on SNB-19. In addition, the values for the GI50 in the assay on SF-539 and in the assay with DU-145 were 17.6 µM (inactive) and > 100 µM (inactive), respectively.
Regarding `NCCCCNC1(c2cc3ccccc3s2)CCCCC1`, the GI50 in the assay with 786-0 is 1.55 µM (inactive); with MDA-N it was 1.71 µM (inactive); with UACC-257, 1.84 µM (inactive); with LOX IMVI, 1.71 µM (inactive); in the assay with HT-29 it was 2.42 µM (inactive); in the assay on HCT-116, 3.65 µM (inactive). For the same molecule, the GI50 was 11.8 µM (inactive) with BT-549; 1.65 µM (inactive) in the assay on HCC 2998; 2.34 µM (inactive) in the assay with U-251; 4.54 µM with HCT-15; 14.8 µM (inactive) in the assay with CAKI-1; 1.69 µM (inactive) in the assay on CCRF-CEM. The GI50 in the assay on UACC-62 is 1.91 µM (inactive); in the assay on SK-MEL-5 it was 1.74 µM (inactive); in the assay on SF-295, 2.84 µM (inactive); with SNB-75, 3.27 µM (inactive); in the assay with NCI-H460 it was 2.62 µM (inactive); in the assay on SNB-19 it was 7.45 µM (inactive). For the same molecule, the GI50 in the assay with SF-539 is 1.95 µM (inactive); with DU-145, 11.1 µM (inactive).
